Data taken from article PMC11233931, “Remodeling tumor‐associated macrophage for anti‐cancer effects by rational design of irreversible inhibition of mitogen‐activated protein kinase‐activated protein kinase 2” (MedComm, 2024).

Assays:
Assay in all cases: Eurofins kinase selectivity profile against 380 other human recombinant kinases (Table S2)
Format in all cases: biochemical
[1] = target: T1, 380 human recombinant protein kinases (Homo sapiens, UniProt P21802); conditions: FGFR2(h), read-out: Inhibition rate
T1 construct: purchased Eurofins (Celle Lévescault)
T1 sequence (P21802 22-821): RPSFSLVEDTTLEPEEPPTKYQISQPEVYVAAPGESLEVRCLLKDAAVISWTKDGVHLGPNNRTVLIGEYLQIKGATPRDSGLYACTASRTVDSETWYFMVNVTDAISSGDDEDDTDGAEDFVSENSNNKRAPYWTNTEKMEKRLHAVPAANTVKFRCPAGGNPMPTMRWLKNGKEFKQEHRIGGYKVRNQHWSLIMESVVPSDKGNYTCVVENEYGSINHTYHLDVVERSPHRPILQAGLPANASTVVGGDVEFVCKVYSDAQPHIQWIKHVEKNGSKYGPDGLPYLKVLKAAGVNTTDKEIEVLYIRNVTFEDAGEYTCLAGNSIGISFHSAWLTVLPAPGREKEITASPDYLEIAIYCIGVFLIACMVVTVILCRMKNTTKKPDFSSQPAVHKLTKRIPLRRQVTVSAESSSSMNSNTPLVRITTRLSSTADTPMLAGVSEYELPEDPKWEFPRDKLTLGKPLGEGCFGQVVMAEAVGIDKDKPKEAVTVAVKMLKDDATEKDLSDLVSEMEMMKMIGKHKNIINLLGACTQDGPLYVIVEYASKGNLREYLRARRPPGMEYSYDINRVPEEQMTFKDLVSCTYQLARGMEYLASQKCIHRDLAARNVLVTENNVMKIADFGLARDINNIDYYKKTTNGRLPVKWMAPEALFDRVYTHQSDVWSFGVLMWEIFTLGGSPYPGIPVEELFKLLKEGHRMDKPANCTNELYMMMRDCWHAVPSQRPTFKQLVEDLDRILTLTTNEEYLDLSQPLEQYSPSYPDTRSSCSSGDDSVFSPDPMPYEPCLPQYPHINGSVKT
How it was run: (§1)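 The inhibitor was sent to a contract lab and screened at various concentrations against 380 human recombinant protein kinases. This served as a counter-screen for MK2 specificity.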

[2] = target: T2, 380 human recombinant protein kinases (Homo sapiens, UniProt P42336, H1047R); conditions: PI3 Kinase (p110α(H1047R)/p85α)(h), read-out: Inhibition rate (%)
T2 construct: purchased Eurofins (Celle Lévescault)
T2 sequence (P42336 whole entry H1047R): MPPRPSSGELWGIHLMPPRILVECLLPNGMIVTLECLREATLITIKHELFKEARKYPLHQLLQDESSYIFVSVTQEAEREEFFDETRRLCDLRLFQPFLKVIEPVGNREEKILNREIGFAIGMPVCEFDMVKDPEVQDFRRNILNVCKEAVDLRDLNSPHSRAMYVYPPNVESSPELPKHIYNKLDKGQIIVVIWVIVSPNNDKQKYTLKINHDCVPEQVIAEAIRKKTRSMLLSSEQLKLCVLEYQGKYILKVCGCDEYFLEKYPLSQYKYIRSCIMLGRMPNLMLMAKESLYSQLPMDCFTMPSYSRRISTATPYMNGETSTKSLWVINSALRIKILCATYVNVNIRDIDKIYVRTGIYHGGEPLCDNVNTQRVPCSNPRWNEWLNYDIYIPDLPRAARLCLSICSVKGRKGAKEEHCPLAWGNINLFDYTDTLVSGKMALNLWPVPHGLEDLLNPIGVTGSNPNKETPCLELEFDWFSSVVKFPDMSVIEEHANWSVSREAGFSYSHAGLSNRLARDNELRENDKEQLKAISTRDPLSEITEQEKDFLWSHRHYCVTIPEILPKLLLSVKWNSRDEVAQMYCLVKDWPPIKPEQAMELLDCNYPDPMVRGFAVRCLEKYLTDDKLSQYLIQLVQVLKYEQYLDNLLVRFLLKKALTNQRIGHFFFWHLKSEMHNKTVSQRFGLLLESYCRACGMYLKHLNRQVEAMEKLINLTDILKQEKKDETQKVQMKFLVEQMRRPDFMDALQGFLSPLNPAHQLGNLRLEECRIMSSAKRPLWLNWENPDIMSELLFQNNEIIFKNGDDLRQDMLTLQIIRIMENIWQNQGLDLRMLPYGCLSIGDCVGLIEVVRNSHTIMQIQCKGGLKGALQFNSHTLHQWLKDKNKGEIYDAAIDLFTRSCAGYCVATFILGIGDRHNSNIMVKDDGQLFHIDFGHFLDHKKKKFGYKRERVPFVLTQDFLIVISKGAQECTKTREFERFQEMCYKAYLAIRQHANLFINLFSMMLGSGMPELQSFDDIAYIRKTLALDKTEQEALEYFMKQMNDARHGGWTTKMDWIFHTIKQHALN
How it was run: as §1

[3] = target: T3, 380 human recombinant protein kinases (Homo sapiens, UniProt P52564); conditions: MKK6(h), read-out: Inhibition rate
T3 construct: purchased Eurofins (Celle Lévescault)
T3 sequence (P52564 1-334): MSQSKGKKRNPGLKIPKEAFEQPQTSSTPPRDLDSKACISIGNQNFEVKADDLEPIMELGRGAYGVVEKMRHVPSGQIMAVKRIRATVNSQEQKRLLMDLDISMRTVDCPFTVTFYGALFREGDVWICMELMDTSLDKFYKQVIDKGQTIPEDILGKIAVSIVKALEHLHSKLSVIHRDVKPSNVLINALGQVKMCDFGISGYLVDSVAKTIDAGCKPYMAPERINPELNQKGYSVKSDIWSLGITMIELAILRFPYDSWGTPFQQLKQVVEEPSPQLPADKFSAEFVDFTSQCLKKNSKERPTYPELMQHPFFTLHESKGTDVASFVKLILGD
How it was run: as §1

[4] = target: T4, 380 human recombinant protein kinases (Homo sapiens, UniProt Q8NG66); conditions: NEK11(h), read-out: Inhibition rate
T4 construct: purchased Eurofins (Celle Lévescault)
T4 sequence (Q8NG66 1-645): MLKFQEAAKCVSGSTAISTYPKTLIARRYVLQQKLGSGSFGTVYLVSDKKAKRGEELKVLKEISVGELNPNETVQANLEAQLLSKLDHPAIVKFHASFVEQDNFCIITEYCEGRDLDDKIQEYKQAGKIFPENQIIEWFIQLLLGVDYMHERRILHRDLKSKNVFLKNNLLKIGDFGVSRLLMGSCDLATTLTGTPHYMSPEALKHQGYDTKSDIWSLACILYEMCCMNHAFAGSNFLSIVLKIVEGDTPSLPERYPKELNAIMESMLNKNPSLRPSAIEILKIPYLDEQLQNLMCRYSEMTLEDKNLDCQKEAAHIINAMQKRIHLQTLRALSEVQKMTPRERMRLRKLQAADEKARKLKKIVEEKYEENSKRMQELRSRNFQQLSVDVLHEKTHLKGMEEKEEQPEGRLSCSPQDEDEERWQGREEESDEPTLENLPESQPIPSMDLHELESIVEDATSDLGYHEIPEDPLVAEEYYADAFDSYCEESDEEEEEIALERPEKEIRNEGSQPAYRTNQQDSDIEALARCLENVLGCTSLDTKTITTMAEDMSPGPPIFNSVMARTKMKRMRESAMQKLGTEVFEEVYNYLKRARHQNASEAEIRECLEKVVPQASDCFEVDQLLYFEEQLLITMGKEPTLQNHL
How it was run: as §1

[5] = target: T5, 380 human recombinant protein kinases (Homo sapiens, UniProt Q8WXR4); conditions: MYO3B(h), read-out: Inhibition rate
T5 construct: purchased Eurofins (Celle Lévescault)
T5 sequence (Q8WXR4 1-1341): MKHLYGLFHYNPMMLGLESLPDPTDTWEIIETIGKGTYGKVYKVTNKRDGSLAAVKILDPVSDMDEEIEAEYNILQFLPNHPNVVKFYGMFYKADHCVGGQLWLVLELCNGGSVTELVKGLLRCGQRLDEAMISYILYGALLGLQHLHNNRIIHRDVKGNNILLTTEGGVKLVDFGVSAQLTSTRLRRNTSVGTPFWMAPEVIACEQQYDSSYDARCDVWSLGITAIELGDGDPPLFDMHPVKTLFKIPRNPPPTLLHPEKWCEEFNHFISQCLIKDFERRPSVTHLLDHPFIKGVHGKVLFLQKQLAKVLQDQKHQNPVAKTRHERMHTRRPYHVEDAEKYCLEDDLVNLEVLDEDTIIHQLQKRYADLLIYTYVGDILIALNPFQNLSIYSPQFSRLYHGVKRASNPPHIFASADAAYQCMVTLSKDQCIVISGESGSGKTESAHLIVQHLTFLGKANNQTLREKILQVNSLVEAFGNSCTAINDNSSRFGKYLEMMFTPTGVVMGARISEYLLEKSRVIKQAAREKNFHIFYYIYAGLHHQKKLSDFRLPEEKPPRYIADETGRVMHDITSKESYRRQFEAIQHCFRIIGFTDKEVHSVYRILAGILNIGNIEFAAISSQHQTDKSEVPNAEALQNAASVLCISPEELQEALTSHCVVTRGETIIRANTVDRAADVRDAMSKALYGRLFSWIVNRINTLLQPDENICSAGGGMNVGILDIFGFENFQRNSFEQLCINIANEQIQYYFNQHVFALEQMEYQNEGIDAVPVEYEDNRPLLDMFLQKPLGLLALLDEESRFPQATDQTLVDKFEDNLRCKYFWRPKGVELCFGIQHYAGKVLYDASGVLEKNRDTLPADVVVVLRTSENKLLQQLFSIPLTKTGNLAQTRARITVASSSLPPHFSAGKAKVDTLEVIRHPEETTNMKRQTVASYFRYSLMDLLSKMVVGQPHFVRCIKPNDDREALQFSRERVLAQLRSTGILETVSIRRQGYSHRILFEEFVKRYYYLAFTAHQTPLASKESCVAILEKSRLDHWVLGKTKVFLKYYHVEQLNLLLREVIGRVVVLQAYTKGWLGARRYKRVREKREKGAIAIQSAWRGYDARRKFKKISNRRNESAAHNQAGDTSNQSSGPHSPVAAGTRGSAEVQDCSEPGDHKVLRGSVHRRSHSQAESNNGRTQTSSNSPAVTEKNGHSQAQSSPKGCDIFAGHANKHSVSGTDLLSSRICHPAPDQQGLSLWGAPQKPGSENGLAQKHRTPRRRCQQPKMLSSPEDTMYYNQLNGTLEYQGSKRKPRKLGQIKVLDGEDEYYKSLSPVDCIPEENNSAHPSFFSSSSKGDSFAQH
How it was run: as §1

C=CC(=O)Nc1cc(-c2cc(-c3cc4c([nH]3)CCNC4=O)ccn2)ccc1OC(F)(F)F [compound 11] showed an inhibition at 0.01 µM ([1]; 10 nM) of -22%, an inhibition at 0.1 µM ([1]; 100 nM) of -12% and an inhibition at 1 µM ([1]; 1000 nM) of -2%. It also gave an inhibition at 0.01 µM ([2]; 10 nM) of 0%, an inhibition at 0.1 µM ([2]; 100 nM) of 0% and an inhibition at 1 µM ([2]; 1000 nM) of 2%. For the same compound, the inhibition at 0.01 µM ([3]; 10 nM) was -4%, the inhibition at 0.1 µM ([3]; 100 nM) was -9% and the inhibition at 1 µM ([3]; 1000 nM) was -15%. The inhibition at 0.01 µM ([4]; 10 nM) was -1%, the inhibition at 0.1 µM ([4]; 100 nM) was 0% and the inhibition at 1 µM ([4]; 1000 nM) was -4%. It also gave an inhibition at 0.01 µM ([5]; 10 nM) of 3%, an inhibition at 0.1 µM ([5]; 100 nM) of 4% and an inhibition at 1 µM ([5]; 1000 nM) of 16%.
